Test system: PBMC of RRMS patients
Test: Gene expression microarray analysis (HG-U133A-2) of PBMC from RRMS patients treated with LAQ, ancillary study to ALLEGRO
Type: in vivo, human
Conditions: for Fold-Change (1.0 vs. 0.0): one month of treatment
Excerpt: The goal of this ancillary study was to characterize gene expression changes and corresponding biological mechanisms induced in PBMC of RRMS patients by LAQ treatment. According to ALLEGRO clinical trial inclusion criteria, 25 patients were randomly assigned to receive LAQ (n=13, age 38.8±2.3 years, female/male ratio: 8/5) or placebo (n=12, age 37.2±3.4 years, female/male ratio: 8/4).
Peripheral blood samples were obtained from RRMS patients at baseline before start of LAQ treatment or placebo, after 0, 1, 6 and 24 month of treatment (visit 0, 1, 6 and 7 according to ALLEGRO clinical trial protocol correspondently) for gene microarray analysis.
Briefly, 1) Peripheral blood mononuclear cells (PBMC) were obtained from RRMS patients that participated in ALLEGRO and were treated daily with 0.6 mg LAQ or placebo. PBMC were subjected for gene expression analysis (HU-133A-2-Affymatrix arrays) at baseline and at 1 and 6 months of LAQ treatment; 2) Data was analyzed by Partek Genomics Solution software. Most informative genes (MIGs) were defined as those that differentiated between groups with p<0.01. Gene functional annotation, enrichment and pathway analysis were performed by Ingenuity software. For each time point, genes that changed in placebo group were excluded from further analysis; and 3) Verification of LAQ related mechanism was performed by Western blot.
PBMC were extracted from 15 ml peripheral blood, separated by Ficoll-Hypaque gradient. Total RNA was extracted using both Trizol (Invitrogen, USA) and Phase-Lock-Gel columns (Eppendorf, Germany) including a DNase digestion step. RNA integrity was assessed by RNA Experion automated electrophoresis system (Bio-Rad Laboratories, Hercules, Calif.).
Probe synthesis using 3 μg total RNA, hybridization, detection, and scanning was performed according to the standard Affymetrix, Inc. USA protocols; cDNA was synthesized using the Two-Cycle cDNA Synthesis Kit (Affymetrix, Inc., USA), and in-vitro transcription performed with the GeneChip IVT Labeling Kit (Affymetrix, Inc., USA). The biotin-labeled IVT-RNA was hybridized to HG-U133A-2 arrays containing 18,400 gene transcripts, each corresponding to 14,500 well-annotated human genes, washed in a GeneChip Fluidics Station 450 (Hewlett Packard, USA, GeneArray-™ scanner G2500A) and scanned according to the manufacturer's protocol (Affymetrix, Inc., USA).
Data analysis was performed on Partek Genomics Solution software (www.partek.com; Partek Incorporated, St. Louis, Mo.). Expression values were computed from raw CEL files by applying the Robust Multi-Chip Average (RMA) background correction algorithm. RMA correction included: 1) values background correction; 2) quintile normalization; 3) log 2 transformation; and 4) median polish summarization. The ANOVA, Repeated Measures and correlation analysis implicated in Partek software ware applied to evaluate LAQ effects. Most informative genes MIGs were defined as those that differentiated between experimental groups with p<0.01. All p-values were calculated for False Discovery Rate (FDR) multiple test correction at p=0.05.
Additionally, significance of individual genes was tested by parametric T-test and non parametric Mann-Whitney test using Bootstrapping approach based on repeated permutations of the data with 5% FDR for multiple testing.
Gene functional annotation, enrichment, and pathway analyses to identify the leading biological pathways that operated under LAQ treatment were performed by Ingenuity Pathways Analysis software (www.ingenuity.com).
ANOVA analysis was used to compare PBMC gene expression after 1, 6 or 24 month of LAQ treatment with baseline gene expression.
For each time point inventors performed analysis source of variation in dataset. (FIG. 1). Age, gender and batch effects were considered as confounders regarding LAQ or Placebo related changes. For each time point genes associated with Placebo effect were evaluated and excluded from further analysis. […]

SMILES: CCN(C(=O)c1c(O)c2c(Cl)cccc2n(C)c1=O)c1ccccc1 [LAQ, 5-chloro-N-ethyl-4-hydroxy-1-methyl-2-oxo-N-phenyl-1,2-dihydroquinoline-3-carboxamide]
- Fold-Change (1.0 vs. 0.0) (LYVE1 220037_s_at): −1.139
- Fold-Change (1.0 vs. 0.0) (MARCH6 201736_s_at): −1.139
- Fold-Change (1.0 vs. 0.0) (MAX 210734_x_at): −1.284
- Fold-Change (1.0 vs. 0.0) (MFAP3L 205442_at): −1.854
- Fold-Change (1.0 vs. 0.0) (MFAP3L 210493_s_at): −1.464
- Fold-Change (1.0 vs. 0.0) (MYL9 201058_s_at): −1.74
- Fold-Change (1.0 vs. 0.0) (MYST3 202423_at): −1.08
- Fold-Change (1.0 vs. 0.0) (NAT8B 206964_at): −1.746
- Fold-Change (1.0 vs. 0.0) (NENF 218407_x_at): −1.141
- Fold-Change (1.0 vs. 0.0) (NRGN 204081_at): −1.604
- Fold-Change (1.0 vs. 0.0) (PDE5A 206757_at): −1.213
- Fold-Change (1.0 vs. 0.0) (PDGFA 205463_s_at): −1.536
- Fold-Change (1.0 vs. 0.0) (PGRMC1 201120_s_at): −1.432
- Fold-Change (1.0 vs. 0.0) (PGRMC1 201121_s_at): −1.443
- Fold-Change (1.0 vs. 0.0) (POPDC3 219926_at): −1.1575
- Fold-Change (1.0 vs. 0.0) (POU1F1 207846_at): −1.091
- Fold-Change (1.0 vs. 0.0) (PPM1A 203966_s_at): −1.182
- Fold-Change (1.0 vs. 0.0) (PRKG1 207119_at): −1.185
- Fold-Change (1.0 vs. 0.0) (PRPF4B 202127_at): −1.135
- Fold-Change (1.0 vs. 0.0) (PSD3 218613_at): −1.258
- Fold-Change (1.0 vs. 0.0) (PTCRA 211837_s_at): −1.274
- Fold-Change (1.0 vs. 0.0) (PTCRA 215492_x_at): −1.526
- Fold-Change (1.0 vs. 0.0) (PTGIS 210702_s_at): −1.095
- Fold-Change (1.0 vs. 0.0) (RBM25 212031_at): −1.105
- Fold-Change (1.0 vs. 0.0) (RET 211421_s_at): −1.221
- Fold-Change (1.0 vs. 0.0) (SDPR 218711_s_at): −1.662
- Fold-Change (1.0 vs. 0.0) (SELP 206049_at): −1.642
- Fold-Change (1.0 vs. 0.0) (SEPT6 214298_x_at): −1.133
- Fold-Change (1.0 vs. 0.0) (SF3B1 201071_x_at): −1.0879
- Fold-Change (1.0 vs. 0.0) (SLC37A1 218928_s_at): −1.126
- Fold-Change (1.0 vs. 0.0) (SPARC 200665_s_at): −1.776
- Fold-Change (1.0 vs. 0.0) (SPARC 212667_at): −1.73
- Fold-Change (1.0 vs. 0.0) (SRRT 201680_x_at): −1.118
- Fold-Change (1.0 vs. 0.0) (TAL1 206283_s_at): −1.752
- Fold-Change (1.0 vs. 0.0) (TAS2R4 221392_at): −1.203
- Fold-Change (1.0 vs. 0.0) (TBXA2R 336_at): −1.433
- Fold-Change (1.0 vs. 0.0) (TGFB1 203085_s_at): −1.24
- Fold-Change (1.0 vs. 0.0) (TMED10 200929_at): −1.099
- Fold-Change (1.0 vs. 0.0) (TNFSF4 207426_s_at): −1.7061
- Fold-Change (1.0 vs. 0.0) (TPM1 210986_s_at): −1.555
- Fold-Change (1.0 vs. 0.0) (TPM1 210987_x_at): −1.447
- Fold-Change (1.0 vs. 0.0) (TPTE 220205_at): −1.158
- Fold-Change (1.0 vs. 0.0) (TRIM58 215047_at): −1.777
- Fold-Change (1.0 vs. 0.0) (TUBB2B 214023_x_at): −1.159
- Fold-Change (1.0 vs. 0.0) (VCL 200931_s_at): −1.406
- Fold-Change (1.0 vs. 0.0) (WASF3 204042_at): −1.606
- Fold-Change (1.0 vs. 0.0) (WDR48 222157_s_at): −1.103
- Fold-Change (1.0 vs. 0.0) (XK 206698_at): −1.88
- Fold-Change (1.0 vs. 0.0) (XYLT1 213725_x_at): 1.314
- Fold-Change (1.0 vs. 0.0) (ZNF415 205514_at): −1.154
- p, differential expression of cellular movement and migration (after one month of LAQ treatment): 3.49*10^−4
- genes (#), Caveolar mediated endocytosis (after one month of treatment): 8
- genes (#), Cellular movement: Adhesion & migration of phagocytes (after one month of treatment): 9
- genes (#), Chemotaxis of neutrophils (after one month of treatment): 4
- genes (#), Clathrin mediated endocytosis (after one month of treatment): 12
- genes (#), Hematological system: Activation of blood platelets (after one month of treatment): 13
- genes (#), Hematological system: Aggregation of blood cells (after one month of treatment): 19
- genes (#), Hematological system: Aggregation of blood platelets (after one month of treatment): 18
- genes (#), Hematological system: Coagulation of blood (after one month of treatment): 14
- genes (#), Inflammatory response: Adhesion of phagocytes (after one month of treatment): 9
- genes (#), Inflammatory response: TGFb signaling (after one month of treatment): 10
- genes (#), Transmigration of leukocytes (after one month of treatment): 8

Reference: patent US20160201132A1, “GENE EXPRESSION BIOMARKERS OF LAQUINIMOD RESPONSIVENESS” (Teva Pharmaceutical Industries Ltd., priority 2013, published 2016)
